Reference: ChEMBL document CHEMBL1909569 (Bioorg Med Chem Lett, 2011)
≈ marks a conversion by molar mass, not a printed value.

Experiments:
[1] = test system: Mycobacterium tuberculosis; experiment: Antimicrobial activity against replicating Mycobacterium tuberculosis after 8 days by micro plate alamar blue assay; assay type: functional; conditions: 192 h
[2] = test system: Mycobacterium tuberculosis; experiment: Antimicrobial activity against non-replicating Mycobacterium tuberculosis after 11 days by luminescence based low oxygen recovery assay; assay type: functional; conditions: 264 h
[3] = biological target: T1, DNA-directed RNA polymerase subunit beta (Mycobacterium tuberculosis, UniProt P9WGY9); experiment: (§1) Inhibition of wild type Mycobacterium tuberculosis RNA polymerase after 10 mins using ribo green staining by rolling circle transcription assay
T1 sequence (P9WGY9 whole entry): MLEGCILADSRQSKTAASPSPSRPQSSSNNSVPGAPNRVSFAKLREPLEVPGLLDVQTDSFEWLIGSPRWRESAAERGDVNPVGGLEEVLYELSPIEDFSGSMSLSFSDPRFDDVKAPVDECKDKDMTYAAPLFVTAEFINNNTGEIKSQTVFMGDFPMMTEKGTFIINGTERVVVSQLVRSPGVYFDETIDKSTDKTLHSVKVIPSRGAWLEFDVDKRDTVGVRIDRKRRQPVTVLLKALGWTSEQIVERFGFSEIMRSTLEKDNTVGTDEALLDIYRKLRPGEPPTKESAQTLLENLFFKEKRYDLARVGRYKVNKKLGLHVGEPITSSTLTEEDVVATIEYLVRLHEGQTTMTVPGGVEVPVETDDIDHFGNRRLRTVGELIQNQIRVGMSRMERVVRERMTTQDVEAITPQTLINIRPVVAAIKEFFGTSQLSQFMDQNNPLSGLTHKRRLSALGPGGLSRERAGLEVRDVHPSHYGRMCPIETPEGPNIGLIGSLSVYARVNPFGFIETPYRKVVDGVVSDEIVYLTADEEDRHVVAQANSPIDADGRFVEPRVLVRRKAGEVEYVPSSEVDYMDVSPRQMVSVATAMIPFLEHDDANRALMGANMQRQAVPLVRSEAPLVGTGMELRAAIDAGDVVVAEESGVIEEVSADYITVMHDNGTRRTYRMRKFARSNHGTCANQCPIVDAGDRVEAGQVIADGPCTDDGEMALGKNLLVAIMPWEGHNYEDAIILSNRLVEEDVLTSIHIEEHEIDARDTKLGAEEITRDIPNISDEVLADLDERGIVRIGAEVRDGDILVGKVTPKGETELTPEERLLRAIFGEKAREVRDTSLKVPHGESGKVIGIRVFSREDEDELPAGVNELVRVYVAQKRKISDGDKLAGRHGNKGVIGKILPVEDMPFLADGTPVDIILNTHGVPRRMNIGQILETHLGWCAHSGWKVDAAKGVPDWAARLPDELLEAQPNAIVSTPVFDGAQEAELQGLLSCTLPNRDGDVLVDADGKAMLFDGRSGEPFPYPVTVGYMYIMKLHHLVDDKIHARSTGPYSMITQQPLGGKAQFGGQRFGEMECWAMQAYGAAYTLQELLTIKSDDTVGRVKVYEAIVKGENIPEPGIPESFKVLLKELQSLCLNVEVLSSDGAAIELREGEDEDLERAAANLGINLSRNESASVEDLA

[4] = biological target: T2, DNA-directed RNA polymerase subunit beta (Mycobacterium tuberculosis) (UniProt P9WGY9); experiment: as §1; parameters: unit not given here
T2 sequence (whole entry): T1 sequence (P9WGY9 whole entry)

Escherichia coli [5] = experiment: Antimicrobial activity against wild type Escherichia coli TG2 after 16 to 20 hrs; assay type: functional
Escherichia coli [6] = experiment: Antimicrobial activity against wild type Escherichia coli DH5[alpha] after 16 to 20 hrs; assay type: functional
Escherichia coli [7] = experiment: Antimicrobial activity against Escherichia coli EC2880 mutant after 16 to 20 hrs; assay type: functional

Compound	MIC90 [1]	MIC90 [2]	IC50 [3]	logIC50 [4]	MIC90 (Escherichia coli [5])	MIC90 (Escherichia coli [6])	MIC90 (Escherichia coli [7])
CO[C@H]1/C=C/O[C@@]2(C)Oc3c(C)c(NCCO)c4c(O)c(c(/C=N/N5CCN(C)CC5)c(O)c4c3C2=O)NC(=O)/C(C)=C\C=C\[C@H](C)[C@H](O)[C@@H](C)[C@@H](O)[C@@H](C)[C@H](OC(C)=O)[C@@H]1C	> 4.6 µM	> 18.5 µM	–	–	–	–	–
C/C=C/Nc1c(C)c2c3c4c(O)c(/C=N/N5CCN(C)CC5)c(c(O)c14)NC(=O)/C(C)=C\C=C\[C@H](C)[C@H](O)[C@@H](C)[C@@H](O)[C@@H](C)[C@H](OC(C)=O)[C@H](C)[C@@H](OC)/C=C/O[C@@](C)(O2)C3=O	> 4.6 µM	> 18.6 µM	–	–	–	–	–
CO[C@H]1/C=C/O[C@@]2(C)Oc3c(C)c(NC4CCCCCC4)c4c(c3C2=O)C(=O)C=C(NC(=O)/C(C)=C\C=C\[C@H](C)[C@H](O)[C@@H](C)[C@@H](O)[C@@H](C)[C@H](OC(C)=O)[C@@H]1C)C4=O	2.2 µM (≈ 1.74 µg/mL)	> 20.2 µM	15400 nM	1.19	> 100 µM	> 100 µM	> 12.5 µM
CO[C@H]1/C=C/O[C@@]2(C)Oc3c(C)c(O)c4c(c3C2=O)C(=O)C(/C=N/N2CCN(C)CC2)=C(NC(=O)/C(C)=C\C=C\[C@H](C)[C@H](O)[C@@H](C)[C@@H](O)[C@@H](C)[C@H](OC(C)=O)[C@@H]1C)C4=O [RIFAMPIN S]	0.07 µM (≈ 0.0575 µg/mL)	0.5 µM (≈ 0.41 µg/mL)	13 nM	-1.88	12.5 µM (≈ 10.3 µg/mL)	25 µM (≈ 20.5 µg/mL)	0.1 µM (≈ 0.0821 µg/mL)
CONc1c(C)c2c3c4c1C(=O)C(=CC4=O)NC(=O)/C(C)=C\C=C\[C@H](C)[C@H](O)[C@@H](C)[C@@H](O)[C@@H](C)[C@H](OC(C)=O)[C@H](C)[C@@H](OC)/C=C/O[C@@](C)(O2)C3=O	3.8 µM (≈ 2.75 µg/mL)	12.5 µM (≈ 9.06 µg/mL)	–	–	–	–	–
C/C=C/Nc1c(C)c2c3c4c1C(=O)C(=CC4=O)NC(=O)/C(C)=C\C=C\[C@H](C)[C@H](O)[C@@H](C)[C@@H](O)[C@@H](C)[C@H](OC(C)=O)[C@H](C)[C@@H](OC)/C=C/O[C@@](C)(O2)C3=O	5.2 µM (≈ 3.82 µg/mL)	18.3 µM (≈ 13.4 µg/mL)	–	–	–	–	–
CO[C@H]1/C=C/O[C@@]2(C)Oc3c(C)c(O)c4c(c3C2=O)C(=O)C=C(NC(=O)/C(C)=C\C=C\[C@H](C)[C@H](O)[C@@H](C)[C@@H](O)[C@@H](C)[C@H](OC(C)=O)[C@@H]1C)C4=O [RIFAMYCIN S]	0.03 µM (≈ 0.0209 µg/mL)	0.4 µM (≈ 0.278 µg/mL)	< 10 nM	–	100 µM (≈ 69.6 µg/mL)	> 100 µM	0.78 µM (≈ 0.543 µg/mL)
CCNc1c(C)c2c3c4c1C(=O)C(=C(/C=N/N1CCN(C)CC1)C4=O)NC(=O)/C(C)=C\C=C\[C@H](C)[C@H](O)[C@@H](C)[C@@H](O)[C@@H](C)[C@H](OC(C)=O)[C@H](C)[C@@H](OC)/C=C/O[C@@](C)(O2)C3=O	> 4.7 µM	> 18.9 µM	–	–	–	–	–
COc1c(N2C[C@@H]3CCCN[C@@H]3C2)c(F)cc2c(=O)c(C(=O)O)cn(C3CC3)c12 [MOXIFLOXACIN]	0.64 µM (≈ 0.257 µg/mL)	4.3 µM (≈ 1.73 µg/mL)	–	–	–	–	–
CO[C@H]1/C=C/O[C@@]2(C)Oc3c(C)c(OS(=O)(=O)c4ccc(C)cc4)c4c(c3C2=O)C(=O)C(/C=N/N2CCN(C)CC2)=C(NC(=O)/C(C)=C\C=C\[C@H](C)[C@H](O)[C@@H](C)[C@@H](O)[C@@H](C)[C@H](OC(C)=O)[C@@H]1C)C4=O	–	–	–	–	> 100 µM	> 100 µM	–
CO[C@H]1/C=C/O[C@@]2(C)Oc3c(C)c(NCc4ccccc4)c4c(c3C2=O)C(=O)C(/C=N/N2CCN(C)CC2)=C(NC(=O)/C(C)=C\C=C\[C@H](C)[C@H](O)[C@@H](C)[C@@H](O)[C@@H](C)[C@H](OC(C)=O)[C@@H]1C)C4=O	> 4.4 µM	> 17.6 µM	–	–	–	–	–
O=[N+]([O-])c1cn2c(n1)OC[C@@H](OCc1ccc(OC(F)(F)F)cc1)C2 [PRETOMANID]	0.66 µM (≈ 0.237 µg/mL)	2.3 µM (≈ 0.826 µg/mL)	–	–	–	–	–
CCNc1c(C)c2c3c4c(O)c(/C=N/N5CCN(C)CC5)c(c(O)c14)NC(=O)/C(C)=C\C=C\[C@H](C)[C@H](O)[C@@H](C)[C@@H](O)[C@@H](C)[C@H](OC(C)=O)[C@H](C)[C@@H](OC)/C=C/O[C@@](C)(O2)C3=O	> 4.7 µM	> 18.8 µM	–	–	–	–	–
CO[C@H]1/C=C/O[C@@]2(C)Oc3c(C)c(NCc4ccccc4)c4c(c3C2=O)C(=O)C=C(NC(=O)/C(C)=C\C=C\[C@H](C)[C@H](O)[C@@H](C)[C@@H](O)[C@@H](C)[C@H](OC(C)=O)[C@@H]1C)C4=O	2.4 µM (≈ 1.88 µg/mL)	> 20.4 µM	–	–	–	–	–
